Measured values reported in patent US10800790B2, “Sesquiterpenoid STAT3 inhibitors” (University of Hawaii, priority 2013, dated 2020).
pIC50: −log10 of the molar value. “Also recorded” adds a separate entry of the source. Like-named read-outs stand apart in the source and are kept apart here.

Tests used:
[1] = test system: U251MG glioblastoma cells; experiment: CyQuant cell viability/proliferation assay, U251MG; assay type: cell-based, human; parameters: key to Activity against U251: +, active; −, no activity; +/−, poorly active; conditions: for Activity against U251: Table 1 grade, Table 1/FIG. 2 compound numbering; for Activity against the cell lines, in words: tested at 5 micromolar; for Cell-type selectivity of growth inhibition, in words: U251MG versus other cells incl. NIH3T3
Procedure: (§1) The cell viability assay was performed as previously reported (Zhang X, et al. (2010)). Briefly, a 10 millimolar concentration stock solution in dimethylsulfoxide (DMSO) of the tested molecule was first prepared. Next, the stock solution was diluted down to various working solutions in water. Thus, a formulation of the tested compound in a DMSO/water mixture was used to test for cell viability. (A novel small-molecule disrupts STAT3 SH2 domainphosphotyrosine interactions and STAT3-dependent tumor processes, Biochem Pharmacol 79:1398-1409; Zhao W, Jaganathan S, & Turkson J (2010), A cell-permeable STAT3 SH2 domain mimetic inhibits STAT3 activation and induces antitumor cell effects in vitro. J Biol Chem. 285:35855-35865). Cells (U251MG, MDA-MB-231 or NIH3T3) were obtained from ATCC (Manassas, Va.) and were cultured in 96-well plates at 2,000 cells per well for 24 h and were treated with compounds (5 micromolar concentration) for 72 h. Cell viabilty was determined using CyQuant assay, according to the manufacturer's (Invitrogen, CA, USA) instructions. Relative viability of the treated cells was normalized to the DMSO-treated control cells.

Stat3 = Stat3 (Homo sapiens, UniProt P40763); experiment: Activity against Stat3 (Table 1 grade); assay type: biochemical; parameters: key: +, active; −, no activity; +/−, poorly active; conditions: Table 1/FIG. 2 compound numbering
Chain of Stat3 (P40763 whole entry, species assumed): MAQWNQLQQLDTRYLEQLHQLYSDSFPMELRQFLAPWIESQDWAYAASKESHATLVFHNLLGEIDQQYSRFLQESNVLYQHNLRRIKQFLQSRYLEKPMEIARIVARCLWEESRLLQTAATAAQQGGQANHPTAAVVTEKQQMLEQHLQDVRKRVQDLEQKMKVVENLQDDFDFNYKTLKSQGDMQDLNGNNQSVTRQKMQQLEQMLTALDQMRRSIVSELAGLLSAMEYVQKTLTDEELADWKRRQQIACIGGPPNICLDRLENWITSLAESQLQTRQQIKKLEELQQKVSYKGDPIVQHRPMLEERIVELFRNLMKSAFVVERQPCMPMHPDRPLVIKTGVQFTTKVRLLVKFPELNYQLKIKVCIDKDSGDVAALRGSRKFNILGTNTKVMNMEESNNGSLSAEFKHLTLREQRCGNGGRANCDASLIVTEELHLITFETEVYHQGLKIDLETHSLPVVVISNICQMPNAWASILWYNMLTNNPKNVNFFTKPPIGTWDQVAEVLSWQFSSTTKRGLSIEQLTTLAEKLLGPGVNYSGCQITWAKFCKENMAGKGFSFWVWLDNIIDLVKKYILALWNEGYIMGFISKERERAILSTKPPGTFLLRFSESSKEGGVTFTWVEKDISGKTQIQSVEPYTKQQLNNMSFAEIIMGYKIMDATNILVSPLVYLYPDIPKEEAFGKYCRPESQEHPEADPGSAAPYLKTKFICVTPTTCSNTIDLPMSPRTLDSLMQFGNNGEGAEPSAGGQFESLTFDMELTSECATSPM

[2] = target: T1, STAT3 (NIH3T3/v-Src nuclear extracts) (Mus musculus, UniProt P42227); experiment: In vitro STAT3 DNA-binding activity/EMSA, nuclear extracts incubated with compound; assay type: biochemical; conditions: 5 micromolar, 30 min at room temperature
T1 construct: nuclear extracts prepared from v-Src-transformed mouse fibroblasts (NIH3T3/v-Src) containing active STAT3; endogenous in cells; host or cells: NIH3T3/v-Src mouse fibroblasts (nuclear extract)
T1 sequence (P42227 whole entry): as the sequence (P40763 whole entry, species assumed) above, with E760D counted along it
Procedure: To further determine the effects of the bioactive agents on STAT3 activity, nuclear extracts prepared from v-Src-transformed mouse fibroblasts (NIH3T3/v-Src) containing active STAT3 were directly incubated with 5 micromolar compounds for 30 min at room temperature prior to performing STAT3 DNA-binding activity in vitro with EMSA analysis. […] These studies indicate that agents directly interact with STAT3 and disrupt STAT3:STAT3 dimers, thereby inhibiting its DNA-binding activity.
Data are representative of 2-3 independent determinations.
Nuclear extract preparations and DNA-binding/electrophoretic mobility shift assay (EMSA) were carried out as previously described (Xu, supra). Nuclear extract preparations and DNA-binding activity/electrophoretic mobility shift assay (EMSA) were carried out as previously described. U251 MG and MDA-MB-231 cells culture were pretreated with different concentrations of the compounds for the indicated period and then harvested for nuclear extract preparation and DNA-binding assay with EMSA analysis. The ^32P-labeled oligonucleotide probe used was hSIE (high-affinity sis-inducible element) from the c-fos gene, m67 variant (5′-[…]-3′) that binds STAT3. Except where indicated, nuclear extracts were pre-incubated with compound for 30 min at room temperature prior to incubation with the radiolabeled probe for 30 min at 30° C. before subjecting to EMSA analysis. Where appropriate, bands corresponding to DNA-binding activities were scanned and quantified for each concentration of compound using ImageJ and plotted as percent of control (vehicle) against concentration of compound, from which the IC50 values were derived.

[3] = test system: pY705STAT3 in U251MG or MDA-MB-231 cells; experiment: Immunoblotting of pY705STAT3 in treated tumor cells; conditions: 5 micromolar, U251MG or MDA-MB-231; for Effect on pY705STAT3 / STAT3 activity (immunoblot), in words: 0-24 h, Table 1/FIG. 2 numbering
Procedure: Positions of STATs:DNA complexes or proteins in gel are labeled; control lanes (0) represent nuclear extracts or whole-cell lysates prepared from 0.05% DMSO-treated cells. Data are representative of at least three to four independent determinations.
Lysates of equal total protein prepared in the lysis buffer (50 mM Hepes, pH 7.5, 150 mM NaCl, 2 mM EDTA, 1% Triton X-100, 0.1% SDS), were subjected to IP or Western blotting analysis. Antibodies against STAT3, pY705STAT3, Src, pY416Src, Erk1/2, and pT202/Y204Erk1/2 and GAPDH (Cell Signaling Technology, Danvers, Mass.), and anti-β-actin, and HSP105 (Santa Cruz Biotechnology, Dallas, Tex.) are from the designated sources.
Whole-cell lysates were prepared in boiling SDS sample loading buffer to extract total proteins, as reported previously. […] Nitrocellulose membranes were probed with primary antibodies, and the detection of horseradish peroxidase-conjugated secondary antibodies by enhanced chemiluminescence (Amersham) was performed. Antibodies used were monoclonal anti-pYSTAT3 and anti-STAT3 antibodies (Cell Signaling Technology, Danvers, Mass.).

[4] = test system: MDA-MB-231 breast cancer cells; experiment: CyQuant cell viability/proliferation assay, MDA-MB-231; assay type: cell-based, human; parameters: key to Activity against 231: +, active; −, no activity; +/−, poorly active
Procedure: as §1

[5] = test system: normal NIH3T3 mouse fibroblasts; experiment: CyQuant cell viability/proliferation assay, NIH3T3; assay type: cell-based; parameters: key to Activity against 3T3: +, active; −, no activity; +/−, poorly active
Procedure: as §1

[6] = test system: STAT3 DNA-binding activity; experiment: STAT3 DNA-binding activity (EMSA) of nuclear extracts from treated tumor cells; conditions: 5 micromolar, time course
Procedure: Positions of STATs:DNA complexes or proteins in gel are labeled; control lanes (0) represent nuclear extracts or whole-cell lysates prepared from 0.05% DMSO-treated cells.
Nuclear extract preparations and DNA-binding/electrophoretic mobility shift assay (EMSA) were carried out as previously described (Xu, supra). Nuclear extract preparations and DNA-binding activity/electrophoretic mobility shift assay (EMSA) were carried out as previously described. U251 MG and MDA-MB-231 cells culture were pretreated with different concentrations of the compounds for the indicated period and then harvested for nuclear extract preparation and DNA-binding assay with EMSA analysis. […] Except where indicated, nuclear extracts were pre-incubated with compound for 30 min at room temperature prior to incubation with the radiolabeled probe for 30 min at 30° C. before subjecting to EMSA analysis.

[7] = test system: STAT3 tyrosine phosphorylation; conditions: Butturini et al. 2011; cited from earlier work
[8] = test system: intracellular glutathione; conditions: literature reports, cited from earlier work
[9] = test system: GSH levels in U251 MG cells; experiment: Glutathione (GSH) levels in U251 MG cells
Procedure: Reduced glutathione (GSH) and oxidized glutathione disulfide (GSSG) levels were assayed using a commercially available kit (Cayman Chemical, Ann Arbor, Mich.) and following the manufacturer's instructions.

[10] = Table 1 grade, Table 1/FIG. 2 compound numbering

| Compound | Activity against U251 [1] | Activity against the cell lines, in words ([1]; Table 1/FIG. 2 numbering) | Activity against Stat3 (Stat3) | Inhibition of STAT3 DNA-binding activity in vitro (EMSA) [2] | Effect on pY705STAT3 / STAT3 activity (immunoblot), in words [3] | Tyrosine-phosphorylation of STAT3 in cells treated with IL-6 [7] | further results |
| --- | --- | --- | --- | --- | --- | --- | --- |
| C=C(C)C(=O)OC1CC(C)C2(O)CCC(C)(C=C3OC(=O)C(CO)=C31)O2 (stereo not shown) [Compound 18] | +/− | moderate to weak activity | − | moderate to no effect | little effects on pY705STAT3 |  |  |
| CC=C(C)C(=O)OC1CC(C)C2(O)CCC(C)(C=C3OC(=O)C(CO)=C31)O2 (stereo not shown) [Compound 19] | − | moderate to weak activity | − | moderate to no effect | little effects on pY705STAT3 |  |  |
| CC=C(C)C(=O)OC1CC(C)C2(O)CCC(C)(C=C3OC(=O)C(COC(C)=O)=C31)O2 (stereo not shown) [Compound 20] |  |  | + | strong inhibition | early inhibition at 15-30 min |  | pIC50 ([1]; 72-h treatment, Table 1/FIG. 2 numbering, read-out: IC50 for the inhibition of U251MG cell viability): 5.37; Cell-type selectivity of growth inhibition, in words ([1]; Table 1/FIG. 2 numbering): selective against the growth of human glioma U251MG cells; Activity against 231 [4, 10]: +; Activity against 3T3 [5, 10]: +/−; Inhibition of STAT3 DNA-binding activity in treated cells (EMSA) [6]: early inhibition at 15-30 min |
| C=C(C)C(=O)OC1CC(C)C2(OC)CCC(C)(C=C3OC(=O)C(CO)=C31)O2 (stereo not shown) [Compound 28] | − | moderate to weak activity | − | moderate to no effect | little effects on pY705STAT3 |  |  |
| C=C1C(=O)O[C@@H]2/C=C(\C)CC/C=C(\C)CC[C@@H]12 [costunolide, reference compound] |  |  |  |  |  | inhibited the tyrosine-phosphorylation of STAT3 | inhibition at 5 µM ([1]; Homo sapiens, U-251, at 5 μM, 72 h, Table 3 numbering (isolates 1-16)): 17.5%; Cell-type selectivity of growth inhibition, in words ([1]; Table 1/FIG. 2 numbering): generally toxic to U251MG and normal NIH3T3; Cell-type selectivity of growth inhibition, in words ([1]; Table 1/FIG. 2 numbering, listed as costinulide): non-specfically active against glioma U251MG and normal NIH3T3 mouse fibroblasts; inhibition at 5 µM ([4]; Homo sapiens, MDA-MB-231, at 5 μM, 72 h, Table 3 numbering (isolates 1-16)): 10.5%; inhibition at 5 µM ([5]; Mus musculus, NIH3T3, at 5 μM, 72 h, Table 3 numbering (isolates 1-16), read-out: NIH-3T3 % inhibition): 41.6%; Intracellular glutathione content [8]: rapid drop in intracellular glutathione content; Intracellular glutathione content ([8]; listed as costinulide): suppress the intracellular glutathione (GSH) pool; Effect on GSH levels [9]: suppressed GSH levels; Effect on pY705STAT3 / STAT3 activity (immunoblot), in words ([3]; listed as costinulide): little effect on STAT3 activity; also recorded: minimal effects on pY705STAT3; Inhibition of pY705STAT3 (immunoblot), in words ([3]; Table 3 numbering (isolates 1-16)): negligible or weak |
| C=C1CC[C@H]2C(=C)CC[C@H]3C(=C)C(=O)O[C@@H]3[C@@H]12 [dehydrocostuslactone] |  |  |  |  |  | inhibited the tyrosine-phosphorylation of STAT3 | Intracellular glutathione content [8]: rapid drop in intracellular glutathione content |
| C/C1=C\[C@H]2OC(=O)[C@@H](C)[C@@H]2CC/C(C)=C/CC1 [dihydrocostunolide] |  |  |  |  |  | failed to exert inhibitory action toward STAT3 tyrosine phosphorylation |  |
